Values joined by “and” are separate entries in the source; they are usually repeats but may differ in a detail not shown here. Equal entries are not always repeated. Structures can show the parent of a compound that is named as a salt.
Key:
C57BL/6J wild-type mice [1] = details: mouse, in vivo
C57BL/6J wild-type mice [2] = tested on: C57BL/6J wild-type mice; parameters: method as in Aldrich et al., 2014; details: i.c.v.; ref Aldrich et al., 2014; cited from earlier work
[3] = tested on: κ receptor gene-disrupted 'knockout' (κ-KO) mice; details: mouse, in vivo
C57BL/6J wild-type mice [4] = details: mouse, in vivo; remark: listed apart in the source
human NOP receptor = target: T1, human NOP receptor (Homo sapiens, UniProt P41146); test: [3H]-N/OFQ NOP receptor binding assay, CHO-hNOP membranes; details: up to a concentration of 10 μM
T1 construct: expressed in transfected cells
T1 sequence (P41146 whole entry): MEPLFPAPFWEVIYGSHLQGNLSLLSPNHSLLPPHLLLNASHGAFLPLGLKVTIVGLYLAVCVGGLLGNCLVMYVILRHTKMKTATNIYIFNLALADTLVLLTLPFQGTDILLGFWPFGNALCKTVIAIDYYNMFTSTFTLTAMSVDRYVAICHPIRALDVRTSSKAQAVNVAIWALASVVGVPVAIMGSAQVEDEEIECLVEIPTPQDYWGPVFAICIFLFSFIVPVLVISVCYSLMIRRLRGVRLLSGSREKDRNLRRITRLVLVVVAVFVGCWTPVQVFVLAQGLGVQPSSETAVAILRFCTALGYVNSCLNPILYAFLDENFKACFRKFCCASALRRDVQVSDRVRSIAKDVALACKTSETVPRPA

C57BL/6J wild-type mice [5] = test: Rotorod assay to determine locomotor activity; format: in vivo, mouse; details: i.c.v., HS665 10 nmol, HS666 30 nmol (ED90); 10-60 min
μ receptor = target: μ receptor; parameters: method as in Spetea et al., 2012; details: ref Spetea et al., 2012; read-out: binding affinity (Ki) for the μ receptor; cited from earlier work
human κ receptor [6] = tested on: human κ receptor
human κ receptor [7] = target: T2, human κ receptor (Homo sapiens, UniProt P41145); test: cell-based; format: cell-based; parameters: host or cells: U2OS (U2OS–hκ receptor–β‐arrestin2 cells), PathHunter eXpress
T2 sequence (P41145 whole entry): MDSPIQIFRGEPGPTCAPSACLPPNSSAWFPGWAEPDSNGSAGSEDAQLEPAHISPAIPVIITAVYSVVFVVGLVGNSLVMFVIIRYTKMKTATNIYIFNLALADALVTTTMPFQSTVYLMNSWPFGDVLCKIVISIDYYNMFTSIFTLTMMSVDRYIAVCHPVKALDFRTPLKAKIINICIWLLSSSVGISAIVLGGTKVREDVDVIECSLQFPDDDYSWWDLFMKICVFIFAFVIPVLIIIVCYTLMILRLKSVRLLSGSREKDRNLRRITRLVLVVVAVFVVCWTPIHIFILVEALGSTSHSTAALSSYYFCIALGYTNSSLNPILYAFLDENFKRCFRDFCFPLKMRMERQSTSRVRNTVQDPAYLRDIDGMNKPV

[8] = tested on: μ receptor gene-disrupted 'knockout' (μ-KO) mice; details: mouse, in vivo
δ receptor = target: δ receptor; parameters: method as in Spetea et al., 2012; details: ref Spetea et al., 2012; read-out: binding affinity for the δ receptor; cited from earlier work
human κ receptor [9] = target: human κ receptor; parameters: method as in Spetea et al., 2012; details: ref Spetea et al., 2012, read-out: binding affinity (Ki) for the κ receptor; cited from earlier work
human μ receptor = target: T3, human μ receptor (Homo sapiens, UniProt P35372); test: [35S]-GTPγS binding assay, CHO-hμ membranes; format: biochemical; details: at concentrations up to 10 μM
T3 construct: expressed in transfected cells
T3 sequence (P35372 whole entry): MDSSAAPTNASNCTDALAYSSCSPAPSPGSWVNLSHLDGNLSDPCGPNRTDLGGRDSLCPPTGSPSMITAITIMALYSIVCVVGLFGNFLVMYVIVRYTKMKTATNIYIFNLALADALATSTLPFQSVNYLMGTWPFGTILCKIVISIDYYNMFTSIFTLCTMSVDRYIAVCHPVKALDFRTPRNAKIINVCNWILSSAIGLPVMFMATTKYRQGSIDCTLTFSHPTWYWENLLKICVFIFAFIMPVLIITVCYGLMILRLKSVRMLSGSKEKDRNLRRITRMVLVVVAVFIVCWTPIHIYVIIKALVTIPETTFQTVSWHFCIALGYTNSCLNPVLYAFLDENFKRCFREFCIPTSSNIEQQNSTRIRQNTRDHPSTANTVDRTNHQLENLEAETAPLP

human κ receptor [10] = target: T2, human κ receptor; test: biochemical; format: biochemical; parameters: expressed in transfected cells
mice = tested on: mice; parameters: method as in Spetea et al., 2012; details: s.c., ref Spetea et al., 2012; cited from earlier work

| Compound | conditioned place preference or aversion (C57BL/6J wild-type mice [1]) | % antinociception (C57BL/6J wild-type mice [4]) [%] | affinity for the NOP receptor (human NOP receptor) | effect on motor performance (latency to fall) (C57BL/6J wild-type mice [5]) | bias factor (G protein over β-arrestin2) (human κ receptor [6]) | antinociceptive activity in μ-KO mice compared with wild-type [8] | G protein activation (agonist activity) at the μ receptor (human μ receptor) | inhibition of U69,593-stimulated [35S]-GTPγS coupling (human κ receptor [10]) | also measured |
| --- | --- | --- | --- | --- | --- | --- | --- | --- | --- |
| CN1CC[C@]23c4c5ccc(O)c4O[C@H]2[C@@H](O)C=C[C@H]3[C@H]1C5 [morphine, morphine sulfate, reference compound] | significant CPP | – | – | – | – | – | – | – | antinociceptive ED50 (C57BL/6J wild-type mice [2]): 2.35 nmol |
| Oc1cccc(CCN(CCc2ccccc2)CC2CC2)c1 [HS666] | neither significant preference nor aversion | 1.00 ± 0.48 | no significant affinity | did not significantly impact motor performance | 62 | not statistically altered | no agonist activity | partially blocks | antinociceptive activity in κ-KO mice compared with wild-type [3]: no antinociceptive activity; Ki (μ receptor): 826 nM; fold decrease in potency, [35S]-GTPγS assay versus PathHunter assay (human κ receptor [6]): 13 fold; ΔΔlog(τ/KA) G protein - β-arrestin2 (human κ receptor [6]): 1.79; EC50 (human κ receptor [7]): 449 ± 56 nM; log(τ/KA) β-arrestin2 (human κ receptor [7]): 3.52 ± 0.02; Emax (human κ receptor [7]; read-out: β-arrestin2 recruitment Emax): 24 ± 1%; Ki (δ receptor): > 10000 nM; Ki (human κ receptor [9]): 5.9 nM; EC50 (human κ receptor [10]): 35.7 ± 6 nM; agonist-stimulated [35S]-GTPγS binding in the presence of nor-BNI (human κ receptor [10]): significantly antagonized; log(τ/KA) G protein (human κ receptor [10]): 5.73 ± 0.29; Emax (human κ receptor [10]; read-out: G protein coupling Emax): 50 ± 4% |
| Oc1ccc2c3c1O[C@H]1c4[nH]c5c(c4C[C@@]4(O)[C@@H](C2)N(CC2CC2)CC[C@]314)C[C@@]1(O)[C@H]2Cc3ccc(O)c4c3[C@@]1(CCN2CC1CC1)[C@H]5O4 [nor-BNI, nor‐binaltorphimine, reference compound] | – | – | – | – | – | – | – | completely blocks coupling | – |
| Oc1cccc(CCN(CCc2ccccc2)CC2CCC2)c1 [HS665] | significant place aversion | 1.97 ± 1.18 | no significant affinity | did not significantly impact motor performance | 389 | not statistically altered | no agonist activity | – | antinociceptive ED50 and 95% C.I. (C57BL/6J wild-type mice [4]): 3.99 (3.14 – 5.33) nmol and 4.74 (3.72 – 6.41) nmol and 3.74 (2.98–4.78) nmol and 3.74 nmol; κ receptor-mediated antinociceptive effects in the writhing test (mice): comparable with U50,488 |
